In patent US10428044B2, “3-amino-1,5,6,7-tetrahydro-4H-indol-4-ones” (Bayer Pharma Aktiengesellschaft, priority 2014, dated 2019):

Molecular target: (recombinant) catalytic domain of human Bub1 (amino acids 704-1085) (Homo sapiens (Human), UniProt O43683)
Experiment: Bub1 kinase assay (TR-FRET)
Assay type: biochemical
Settings: ATP 10 μM final, peptide substrate 1 μM final, 60 min at 22° C., read-out: Biological Assay: Bub1 kinase assay median IC50
How it was run: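 Compounds were serially diluted 1:3.4 from 2 mM DMSO stocks and incubated with the enzyme reaction for 60 min at 22° C. The reaction was stopped with EDTA, and biotinylated peptide phosphorylation was read by TR-FRET using Eu anti-mouse IgG, anti-phosphoserine antibody and streptavidin-XL665. IC50 was fitted by 4-parameter logistic to inhibition normalized to no-inhibitor and no-enzyme controls.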

Sequence of (recombinant) catalytic domain of human Bub1 (amino acids 704-1085) (O43683 704-1085): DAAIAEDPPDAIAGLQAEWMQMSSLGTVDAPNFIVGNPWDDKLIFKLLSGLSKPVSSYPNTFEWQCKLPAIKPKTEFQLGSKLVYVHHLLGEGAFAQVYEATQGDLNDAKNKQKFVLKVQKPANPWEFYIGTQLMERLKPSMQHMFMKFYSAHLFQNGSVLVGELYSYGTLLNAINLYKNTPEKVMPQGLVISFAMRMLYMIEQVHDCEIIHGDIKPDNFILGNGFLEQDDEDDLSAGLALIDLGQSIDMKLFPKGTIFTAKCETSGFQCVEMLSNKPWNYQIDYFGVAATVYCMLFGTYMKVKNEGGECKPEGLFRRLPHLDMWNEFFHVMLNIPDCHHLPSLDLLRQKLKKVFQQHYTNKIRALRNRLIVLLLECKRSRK

SMILES	IC50 [nM]
N#Cc1cnccc1-c1[nH]c2c(c1Nc1ccccc1)C(=O)CCC2 [Example 197, 4-[4-oxo-3-(phenylamino)-4,5,6,7-tetrahydro-1H-indol-2-yl]pyridine-3-carbonitrile]	> 20000
CC1(C)CC(=O)c2c([nH]c(-c3ccncc3C#N)c2Nc2cccc(F)c2)C1 [Example 198, 4-{3-[(3-fluorophenyl)amino]-6,6-dimethyl-4-oxo-4,5,6,7-tetrahydro-1H-indol-2-yl}pyridine-3-carbonitrile]	10900
CC1(C)CC(=O)c2c([nH]c(-c3ccncc3Br)c2Nc2ccccc2)C1 [Example 199, 2-(3-bromopyridin-4-yl)-6,6-dimethyl-3-(phenylamino)-1,5,6,7-tetrahydro-4H-indol-4-one]	12
CSc1cc(-c2[nH]c3c(c2Nc2ccccc2)C(=O)CC(C)(C)C3)ccn1 [Example 200, 6,6-dimethyl-2-[2-(methylsulfanyl)pyridin-4-yl]-3-(phenylamino)-1,5,6,7-tetrahydro-4H-indol-4-one]	610
CSc1cnccc1-c1[nH]c2c(c1Nc1ccccc1)C(=O)CC(C)(C)C2 [Example 201, 6,6-dimethyl-2-[3-(methylsulfanyl)pyridin-4-yl]-3-(phenylamino)-1,5,6,7-tetrahydro-4H-indol-4-one]	47.4
C[S+]([O-])c1cnccc1-c1[nH]c2c(c1Nc1ccccc1)C(=O)CC(C)(C)C2 (stereo not drawn) [Example 202, {4-[6,6-dimethyl-4-oxo-3-(phenylamino)-4,5,6,7-tetrahydro-1H-indol-2-yl]pyridin-3-yl}(methyl)sulfoniumolate]	1990
CC1(C)CC(=O)c2c([nH]c(-c3ccnc(N)c3)c2Nc2cccc(Br)c2)C1 [Example 203, 2-(2-aminopyridin-4-yl)-3-[(3-bromophenyl)amino]-6,6-dimethyl-1,5,6,7-tetrahydro-4H-indol-4-one]	115
CC1(C)CC(=O)c2c([nH]c(-c3ccnc(Nc4cnn(Cc5ccccc5)c4)c3)c2Nc2ccccc2)C1 [Example 204, 2-{2-[(1-benzyl-1H-pyrazol-4-yl)amino]pyridin-4-yl}-6,6-dimethyl-3-(phenylamino)-1,5,6,7-tetrahydro-4H-indol-4-one]	42.6
Cn1cc(Nc2cc(-c3[nH]c4c(c3Nc3ccccc3)C(=O)CC(C)(C)C4)ccn2)cn1 [Example 205, 6,6-dimethyl-2-{2-[(1-methyl-1H-pyrazol-4-yl)amino]pyridin-4-yl}-3-(phenylamino)-1,5,6,7-tetrahydro-4H-indol-4-one]	22.9
Nc1cc(-c2[nH]c3c(c2Nc2ccccc2)C(=O)CC2(CC2)C3)ccn1 [Example 206, 2′-(2-aminopyridin-4-yl)-3′-(phenylamino)-1′,7′-dihydrospiro[cyclopropane-1,6′-indol]-4′(5′H)-one]	9.73
O=C1CC2(CC2)Cc2[nH]c(-c3ccnc(F)c3)c(Nc3ccccc3)c21 [Example 207, 2′-(2-fluoropyridin-4-yl)-3′-(phenylamino)-1′,7′-dihydrospiro[cyclopropane-1,6′-indol]-4′(5′H)-one]	7.32
O=C1CC2(CC2)Cc2[nH]c(-c3ccncc3F)c(Nc3ccccc3)c21 [Example 208, 2′-(3-fluoropyridin-4-yl)-3′-(phenylamino)-1′,7′-dihydrospiro[cyclopropane-1,6′-indol]-4′(5′H)-one]	6.39
Cc1cc(-c2[nH]c3c(c2Nc2ccccc2)C(=O)CC(C)(C)C3)cc(C)n1 [Example 209, 2-(2,6-dimethylpyridin-4-yl)-6,6-dimethyl-3-(phenylamino)-1,5,6,7-tetrahydro-4H-indol-4-one]	3120
CC1(C)CC(=O)c2c([nH]c(-c3ccnc4c3OCCO4)c2Nc2ccccc2)C1 [Example 210, 2-(2,3-dihydro[1,4]dioxino[2,3-b]pyridin-8-yl)-6,6-dimethyl-3-(phenylamino)-1,5,6,7-tetrahydro-4H-indol-4-one]	130
Nc1cc(-c2[nH]c3c(c2Nc2ccc(F)cc2)C(=O)CCC3)ccn1 [Example 211, 2-(2-aminopyridin-4-yl)-3-[(4-fluorophenyl)amino]-1,5,6,7-tetrahydro-4H-indol-4-one]	114
Nc1cc(-c2[nH]c3c(c2Nc2ccc(F)c(F)c2)C(=O)CCC3)ccn1 [Example 212, 2-(2-aminopyridin-4-yl)-3-[(3,4-difluorophenyl)amino]-1,5,6,7-tetrahydro-4H-indol-4-one]	220
CC1(C)CC(=O)c2c([nH]c(-c3ccnc(F)c3)c2Nc2ccccc2)C1 [Example 213, 2-(2-fluoropyridin-4-yl)-6,6-dimethyl-3-(phenylamino)-1,5,6,7-tetrahydro-4H-indol-4-one]	12.2
CC1(C)CC(=O)c2c([nH]c(-c3ccnc(Cl)c3Cl)c2Nc2ccccc2)C1 [Example 214, 2-(2,3-dichloropyridin-4-yl)-6,6-dimethyl-3-(phenylamino)-1,5,6,7-tetrahydro-4H-indol-4-one]	67.6

SMILES	IC50 [nM]
CC1(C)CC(=O)c2c([nH]c(-c3cc(Cl)ncc3Cl)c2Nc2ccccc2)C1 [Example 215, 2-(2,5-dichloropyridin-4-yl)-6,6-dimethyl-3-(phenylamino)-1,5,6,7-tetrahydro-4H-indol-4-one]	9680
CC1(C)CC(=O)c2c([nH]c(-c3cc(Cl)nc(Cl)c3)c2Nc2ccccc2)C1 [Example 216, 2-(2,6-dichloropyridin-4-yl)-6,6-dimethyl-3-(phenylamino)-1,5,6,7-tetrahydro-4H-indol-4-one]	> 20000
O=C1CCCc2[nH]c(-c3cc(Cl)nc(Cl)c3)c(Nc3ccccc3)c21 [Example 217, 2-(2,6-dichloropyridin-4-yl)-3-(phenylamino)-1,5,6,7-tetrahydro-4H-indol-4-one]	> 20000
O=C1CCCc2[nH]c(-c3cc(F)ncc3F)c(Nc3ccccc3)c21 [Example 218, 2-(2,5-difluoropyridin-4-yl)-3-(phenylamino)-1,5,6,7-tetrahydro-4H-indol-4-one]	906
CC1(C)CC(=O)c2c([nH]c(-c3ccnc(Cl)c3F)c2Nc2ccccc2)C1 [Example 219, 2-(2-chloro-3-fluoropyridin-4-yl)-6,6-dimethyl-3-(phenylamino)-1,5,6,7-tetrahydro-4H-indol-4-one]	12.2
CC1(C)CC(=O)c2c([nH]c(-c3cc(Cl)ncc3F)c2Nc2ccccc2)C1 [Example 220, 2-(2-chloro-5-fluoropyridin-4-yl)-6,6-dimethyl-3-(phenylamino)-1,5,6,7-tetrahydro-4H-indol-4-one]	1400
CC1(C)CC(=O)c2c([nH]c(-c3ccnc4[nH]cnc34)c2Nc2ccccc2)C1 [Example 221, 2-(3H-imidazo[4,5-b]pyridin-7-yl)-6,6-dimethyl-3-(phenylamino)-1,5,6,7-tetrahydro-4H-indol-4-one]	13.1
CC(C)C1CC(=O)c2c([nH]c(-c3ccnc(N)c3)c2Nc2ccc(F)c(F)c2)C1 (stereo not drawn) [Example 222, 2-(2-aminopyridin-4-yl)-3-[(3,4-difluorophenyl)amino]-6-(propan-2-yl)-1,5,6,7-tetrahydro-4H-indol-4-one]	28.5
CC1(C)CC(=O)c2c([nH]c(-c3ccnc(N)n3)c2Nc2ccccc2)C1 [Example 223, 2-(2-aminopyrimidin-4-yl)-6,6-dimethyl-3-(phenylamino)-1,5,6,7-tetrahydro-4H-indol-4-one]	40.5
CC1(C)CC(=O)c2c([nH]c(-c3cc(N)ncn3)c2Nc2ccccc2)C1 [Example 224, 2-(6-aminopyrimidin-4-yl)-6,6-dimethyl-3-(phenylamino)-1,5,6,7-tetrahydro-4H-indol-4-one]	248
CCC(=O)Nc1cc(-c2[nH]c3c(c2Nc2ccccc2)C(=O)CCC3)ccn1 [Example 225, N-{4-[4-oxo-3-(phenylamino)-4,5,6,7-tetrahydro-1H-indol-2-yl]pyridin-2-yl}propanamide]	26.7
CCCC(=O)Nc1cc(-c2[nH]c3c(c2Nc2ccccc2)C(=O)CCC3)ccn1 [Example 226, N-{4-[4-oxo-3-(phenylamino)-4,5,6,7-tetrahydro-1H-indol-2-yl]pyridin-2-yl}butanamide]	20.4
CC(C)(C)C(=O)Nc1cc(-c2[nH]c3c(c2Nc2ccccc2)C(=O)CCC3)ccn1 [Example 227, 2,2-dimethyl-N-{4-[4-oxo-3-(phenylamino)-4,5,6,7-tetrahydro-1H-indol-2-yl]pyridin-2-yl}propanamide]	260
CC1(C(=O)Nc2cc(-c3[nH]c4c(c3Nc3ccccc3)C(=O)CCC4)ccn2)CC1 [Example 228, 1-methyl-N-{4-[4-oxo-3-(phenylamino)-4,5,6,7-tetrahydro-1H-indol-2-yl]pyridin-2-yl}cyclopropanecarboxamide]	56.7
O=C1CCCc2[nH]c(-c3ccnc(NC(=O)C4CCC4)c3)c(Nc3ccccc3)c21 [Example 229, N-{4-[4-oxo-3-(phenylamino)-4,5,6,7-tetrahydro-1H-indol-2-yl]pyridin-2-yl}cyclobutanecarboxamide]	19.4
CC(C)C(=O)Nc1cc(-c2[nH]c3c(c2Nc2ccccc2)C(=O)CCC3)ccn1 [Example 230, 2-methyl-N-{4-[4-oxo-3-(phenylamino)-4,5,6,7-tetrahydro-1H-indol-2-yl]pyridin-2-yl}propanamide]	20
O=C(CC1CC1)Nc1cc(-c2[nH]c3c(c2Nc2ccccc2)C(=O)CCC3)ccn1 [Example 231, 2-cyclopropyl-N-{4-[4-oxo-3-(phenylamino)-4,5,6,7-tetrahydro-1H-indol-2-yl]pyridin-2-yl}acetamide]	29.9
CC1(C)CC1C(=O)Nc1cc(-c2[nH]c3c(c2Nc2ccccc2)C(=O)CCC3)ccn1 (stereo not drawn) [Example 232, 2,2-dimethyl-N-{4-[4-oxo-3-(phenylamino)-4,5,6,7-tetrahydro-1H-indol-2-yl]pyridin-2-yl}cyclopropanecarboxamide]	34.7
